How the values were obtained:
[1] = molecular target: IKZF3 (Homo sapiens (Human), UniProt Q96SW2+Q9UKT9); assay: Western blot, substrate protein expression in hPBMC: IKZF3; format: cell-based; details: for substrate protein remaining % IKZF3: hPBMC, compound 500 nM, 24 hours, Western blot; for concentration at which IKZF3 protein was significantly degraded (Western blot, FIG. 1): hPBMCs
Procedure, shortened: (§1)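 hPBMC, 1×10^6 cells/mL, 24 h compound exposure; RIPA lysis, BCA protein assay, SDS-PAGE, NC membrane immunoblot. Densitometry vs internal control → % protein remaining; degradation % = 100% − remaining; DC50 = conc. at 50% of DMSO band signal.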

[2] = molecular target: IKZF1 (Homo sapiens (Human), UniProt Q13422+Q96SW2); assay: Western blot, substrate protein expression in hPBMC: IKZF1; format: cell-based; details: for substrate protein remaining % IKZF1: hPBMC, compound 500 nM, 24 hours, Western blot; for concentration at which IKZF1 protein was significantly degraded (Western blot, FIG. 1): hPBMCs
Procedure, shortened: as §1

[3] = test system: MM.1S cells (human multiple myeloma cells); assay: Tumor cell proliferation inhibition, CCK-8; format: cell-based; details: MM1.S, MM.1S cells, CCK-8, read-out: inhibitory activity (IC50, nM) MM.1S
Experimental: (§2) The tumor cells used herein were cultured in a cell culture medium listed in table 2 at 37° C. in an incubator with 5% CO2. Prior to experimentation, all cells used were correctly identified by STR profiling, and tested negative for mycoplasma through routine screenings.
(§3) IC50 values of the compounds of the present disclosure (including the compounds in Table 1 and the Examples 1-305 compounds) were measured using the Meilun Cell Counting Kit-8 kit from Dalian Meilun Biotech Co., Ltd. Assay details are as follows: tumor cells were seeded in a 96-well plate at a density listed in Table 5. After 24 h, 100 μL of the inoculated cells were treated with 0.5 μL of the compounds of the present disclosure (including the compounds in Table 1 and the Examples 1-305 compounds) at 10 different successively decreasing concentrations (starting at the highest concentration of 10 μM; 5-fold serial dilutions). After the cells were treated with the compounds of the present disclosure for a period of time, the cell viability detection reagent was added to the culture medium for cell viability assessment according to the instructions provided with the CCK-8 kit. […] The growth inhibition of the compounds of the present disclosure on cells was plotted by Prism Graphpad software, and the IC50 values of the compounds of the present disclosure were calculated therefrom.

[4] = test system: TMD8 cells (human diffuse large B-cell lymphoma cells); assay: Tumor cell proliferation inhibition, CCK-8; format: cell-based; details: TMD8 cells, CCK-8, read-out: inhibitory activity (IC50, nM) TMD8
Experimental: as §2, §3

[5] = test system: H146 cells (human small cell lung carcinoma cells); assay: Tumor cell proliferation inhibition, CCK-8; format: cell-based; details: NCI-H146, H146 cells, CCK-8, read-out: inhibitory activity (IC50, nM) H146
Experimental: as §2, §3

[6] = test system: MDA-MB-231 cells (human breast adenocarcinoma cells); assay: Tumor cell proliferation inhibition, CCK-8; format: cell-based; details: MDA-MB-231 cells, CCK-8, read-out: inhibitory activity (IC50, nM) MDA-MB-231
Experimental: as §2, §3

[7] = molecular target: human Cereblon WT GST-tagged protein (Homo sapiens (Human), UniProt Q96SW2); assay: CRBN-binding affinity, HTRF (CEREBLON BINDING kit, CISBIO); details: HTRF inhibitory activity
Procedure, shortened: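 Compounds were mixed with GST-tagged human Cereblon WT protein, then with Thalidomide-Red tracer and GST Eu antibody, and binding was read by HTRF. Inhibition rate was calculated from 620 nm emission relative to blank control wells (no protein) and solvent control wells.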

[8] = molecular target: GSPT1 (Homo sapiens (Human), UniProt P15170+Q96SW2); assay: Western blot, substrate protein expression in hPBMC: GSPT1; format: cell-based; details: for substrate protein remaining % GSPT1: hPBMC, compound 500 nM, 24 hours, Western blot; for concentration at which GSPT1 protein was clearly/significantly degraded (Western blot, FIG. 1): hPBMCs
Procedure, shortened: as §1

IKZF3, sequence (Q9UKT9 whole entry): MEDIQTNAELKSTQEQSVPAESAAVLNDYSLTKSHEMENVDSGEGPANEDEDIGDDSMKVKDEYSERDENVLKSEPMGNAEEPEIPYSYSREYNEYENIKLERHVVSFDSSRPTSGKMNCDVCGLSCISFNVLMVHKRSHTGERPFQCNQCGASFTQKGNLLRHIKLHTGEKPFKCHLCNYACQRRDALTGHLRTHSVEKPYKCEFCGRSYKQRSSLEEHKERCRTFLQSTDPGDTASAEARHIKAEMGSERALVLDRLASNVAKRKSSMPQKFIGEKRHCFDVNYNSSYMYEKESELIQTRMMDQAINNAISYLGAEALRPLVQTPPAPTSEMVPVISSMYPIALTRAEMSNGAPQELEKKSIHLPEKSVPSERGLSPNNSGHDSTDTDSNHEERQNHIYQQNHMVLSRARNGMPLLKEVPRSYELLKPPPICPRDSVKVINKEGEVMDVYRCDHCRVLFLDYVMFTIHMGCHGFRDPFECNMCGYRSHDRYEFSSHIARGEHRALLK
IKZF3, sequence (Q96SW2 whole entry): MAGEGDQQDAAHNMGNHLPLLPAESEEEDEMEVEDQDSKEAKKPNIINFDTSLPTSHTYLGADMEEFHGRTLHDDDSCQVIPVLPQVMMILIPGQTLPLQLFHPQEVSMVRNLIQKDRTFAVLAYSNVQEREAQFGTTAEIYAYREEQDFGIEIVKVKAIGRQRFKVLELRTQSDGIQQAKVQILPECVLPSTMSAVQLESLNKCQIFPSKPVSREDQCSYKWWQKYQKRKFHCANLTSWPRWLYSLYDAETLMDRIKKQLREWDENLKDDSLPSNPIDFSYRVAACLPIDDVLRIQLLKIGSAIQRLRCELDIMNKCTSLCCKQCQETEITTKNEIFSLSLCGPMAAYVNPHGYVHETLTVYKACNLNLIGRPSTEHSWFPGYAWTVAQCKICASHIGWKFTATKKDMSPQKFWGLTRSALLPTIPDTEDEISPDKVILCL
IKZF3, sequence (Q16531 whole entry partner): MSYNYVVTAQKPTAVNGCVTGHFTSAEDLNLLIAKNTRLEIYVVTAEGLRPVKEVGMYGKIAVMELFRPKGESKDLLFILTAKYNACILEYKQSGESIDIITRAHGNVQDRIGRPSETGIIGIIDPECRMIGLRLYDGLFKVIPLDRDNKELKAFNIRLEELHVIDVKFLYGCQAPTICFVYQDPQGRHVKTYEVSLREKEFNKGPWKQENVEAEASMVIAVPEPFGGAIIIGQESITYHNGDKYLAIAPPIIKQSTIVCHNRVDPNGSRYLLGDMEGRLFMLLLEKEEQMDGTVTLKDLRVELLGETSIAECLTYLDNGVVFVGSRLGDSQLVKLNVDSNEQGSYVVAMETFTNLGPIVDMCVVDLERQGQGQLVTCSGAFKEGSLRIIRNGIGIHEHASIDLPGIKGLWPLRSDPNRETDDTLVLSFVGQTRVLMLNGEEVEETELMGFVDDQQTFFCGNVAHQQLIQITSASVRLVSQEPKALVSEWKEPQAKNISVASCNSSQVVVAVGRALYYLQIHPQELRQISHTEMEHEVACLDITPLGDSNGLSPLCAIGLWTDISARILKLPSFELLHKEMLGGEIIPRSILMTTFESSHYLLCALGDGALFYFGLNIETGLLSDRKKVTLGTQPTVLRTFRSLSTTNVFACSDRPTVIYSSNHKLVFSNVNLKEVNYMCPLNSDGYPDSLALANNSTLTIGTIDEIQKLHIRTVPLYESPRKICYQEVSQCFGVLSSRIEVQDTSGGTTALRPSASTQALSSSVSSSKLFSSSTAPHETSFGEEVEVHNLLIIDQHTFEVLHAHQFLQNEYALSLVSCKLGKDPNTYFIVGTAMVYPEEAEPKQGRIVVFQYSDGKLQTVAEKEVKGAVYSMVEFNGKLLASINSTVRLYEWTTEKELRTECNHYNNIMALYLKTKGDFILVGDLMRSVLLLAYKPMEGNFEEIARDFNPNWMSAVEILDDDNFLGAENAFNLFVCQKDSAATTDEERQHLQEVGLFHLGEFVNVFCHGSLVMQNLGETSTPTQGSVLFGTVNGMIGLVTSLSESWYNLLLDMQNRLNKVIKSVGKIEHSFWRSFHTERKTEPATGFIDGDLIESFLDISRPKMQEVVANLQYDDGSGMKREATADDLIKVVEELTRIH
human Cereblon WT GST-tagged protein, sequence (Q96SW2 whole entry): as the sequence (Q96SW2 whole entry) above
GSPT1, sequence (P15170 whole entry): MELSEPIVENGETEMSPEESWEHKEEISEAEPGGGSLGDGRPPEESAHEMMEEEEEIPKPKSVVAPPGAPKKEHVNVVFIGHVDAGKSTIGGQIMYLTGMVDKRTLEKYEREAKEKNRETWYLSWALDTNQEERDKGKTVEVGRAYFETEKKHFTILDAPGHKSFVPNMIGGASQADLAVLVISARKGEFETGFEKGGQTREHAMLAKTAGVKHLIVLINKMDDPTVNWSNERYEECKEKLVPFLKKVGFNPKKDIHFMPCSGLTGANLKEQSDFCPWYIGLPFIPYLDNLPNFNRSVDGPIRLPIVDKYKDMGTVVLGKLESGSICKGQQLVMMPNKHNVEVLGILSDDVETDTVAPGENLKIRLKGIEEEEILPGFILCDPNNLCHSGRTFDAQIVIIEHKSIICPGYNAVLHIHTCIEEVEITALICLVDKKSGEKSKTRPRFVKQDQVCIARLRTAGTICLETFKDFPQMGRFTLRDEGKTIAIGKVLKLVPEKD
GSPT1, sequence (Q96SW2 whole entry): as the sequence (Q96SW2 whole entry) above
GSPT1, sequence (Q16531 whole entry partner): as the sequence (Q16531 whole entry partner) above
IKZF1, sequence (Q13422 whole entry): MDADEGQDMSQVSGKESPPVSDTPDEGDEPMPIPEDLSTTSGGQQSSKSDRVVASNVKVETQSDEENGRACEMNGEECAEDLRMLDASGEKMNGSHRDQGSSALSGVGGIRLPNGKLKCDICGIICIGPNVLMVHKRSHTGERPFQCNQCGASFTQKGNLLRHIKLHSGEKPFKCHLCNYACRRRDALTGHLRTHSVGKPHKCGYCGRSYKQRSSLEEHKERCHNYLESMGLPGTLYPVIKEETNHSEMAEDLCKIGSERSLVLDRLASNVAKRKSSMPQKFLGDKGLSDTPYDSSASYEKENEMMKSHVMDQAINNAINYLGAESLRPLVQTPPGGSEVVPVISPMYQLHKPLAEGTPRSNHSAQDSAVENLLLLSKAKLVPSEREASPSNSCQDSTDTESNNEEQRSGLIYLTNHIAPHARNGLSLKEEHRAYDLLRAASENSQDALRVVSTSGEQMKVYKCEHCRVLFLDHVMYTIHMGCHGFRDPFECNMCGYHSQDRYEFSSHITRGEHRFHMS
IKZF1, sequence (Q96SW2 whole entry): as the sequence (Q96SW2 whole entry) above
IKZF1, sequence (Q16531 whole entry partner): as the sequence (Q16531 whole entry partner) above

Row | IC50 [3] [nM] | IC50 [4] [nM] | IC50 [5] [nM] | IC50 [6] [nM] | IC50 [7] [µM] | SMILES | substrate protein remaining % IKZF3 [1] | concentration at which IKZF3 protein was significantly degraded (Western blot, FIG. 1) [1] | substrate protein remaining % IKZF1 [2] | concentration at which IKZF1 protein was significantly degraded (Western blot, FIG. 1) [2] | substrate protein remaining % GSPT1 [8] | concentration at which GSPT1 protein was clearly/significantly degraded (Western blot, FIG. 1) [8]
1 | 1 to 10 | 500 to 1000 | 10 to 50 | 50 to 100 | < 0.5 | O=C1CCC(N2Cc3cc(CN4C[C@@H]5C[C@H]4CN5C(c4ccccc4)c4ccccc4)c(F)cc3C2=O)C(=O)N1 (stereo partly drawn) [GT-05894, 3-(5-(((1S,4S)-5-benzhydryl-2,5-diazabicyclo[2.2.1]heptan-2-yl)methyl)-6-fluoro-1-oxoisoindolin-2-yl)piperidine-2,6-dione] | B (B represents substrate protein remaining % > 50%) | – | A (A represents 0% ≤ substrate protein remaining % ≤ 50%) | – | A (A represents 0% ≤ substrate protein remaining % ≤ 50%) | –
2 | 1 to 10 | 10 to 50 | 10 to 50 | 10 to 50 | < 0.5 | O=C1CCC(N2Cc3cc(CN4CCN(C5c6ccccc6-c6ccccc65)CC4)ccc3C2=O)C(=O)N1 (stereo not shown) [GT-05907, 3-(5-((4-(9H-fluoren-9-yl)piperazin-1-yl)methyl)-1-oxoisoindolin-2-yl)piperidine-2,6-dione] | A (A represents 0% ≤ substrate protein remaining % ≤ 50%) | – | A (A represents 0% ≤ substrate protein remaining % ≤ 50%) | – | A (A represents 0% ≤ substrate protein remaining % ≤ 50%) | –
3 | 1 to 10 | 10 to 50 | 10 to 50 | 10 to 50 | 0.5 to 1 | O=C1CCC(N2Cc3c(ccc(CN4CCN(C(c5ccccc5F)c5ccccc5F)CC4)c3F)C2=O)C(=O)N1 (stereo not shown) [GT-06085, 3-(5-((4-(bis(2-fluorophenyl)methyl)piperazin-1-yl)methyl)-4-fluoro-1-oxoisoindolin-2-yl)piperidine-2,6-dione] | A (A represents 0% ≤ substrate protein remaining % ≤ 50%) | – | A (A represents 0% ≤ substrate protein remaining % ≤ 50%) | – | A (A represents 0% ≤ substrate protein remaining % ≤ 50%) | –
4 | 10 to 50 | 100 to 500 | 50 to 100 | 100 to 500 | < 0.5 | O=C1CCC(N2Cc3cc(CN4CCN(C(c5ccccc5F)c5ccccc5F)CC4)cc(F)c3C2=O)C(=O)N1 (stereo not shown) [GT-06087, 3-(5-((4-(bis(2-fluorophenyl)methyl)piperazin-1-yl)methyl)-7-fluoro-1-oxoisoindolin-2-yl)piperidine-2,6-dione] | B (B represents substrate protein remaining % > 50%) | – | B (B represents substrate protein remaining % > 50%) | – | A (A represents 0% ≤ substrate protein remaining % ≤ 50%) | –
5 | 10 to 50 | 500 to 1000 | 100 to 500 | 100 to 500 | < 0.5 | O=C1CCC(N2Cc3cc(C(=O)N4CCN(C(c5cccc(F)c5)c5cccc(F)c5)CC4)ccc3C2=O)C(=O)N1 (stereo not shown) [GT-06146, 3-(5-(4-(bis(3-fluorophenyl)methyl)piperazine-1-carbonyl)-1-oxoisoindolin-2-yl)piperidine-2,6-dione] | A (A represents 0% ≤ substrate protein remaining % ≤ 50%) | – | A (A represents 0% ≤ substrate protein remaining % ≤ 50%) | – | A (A represents 0% ≤ substrate protein remaining % ≤ 50%) | –

More lines, now with the values behind:

Row | SMILES | IC50 [3] [nM] | IC50 [4] [nM] | IC50 [5] [nM] | IC50 [6] [nM] | IC50 [7] [µM] | substrate protein remaining % IKZF3 [1] | concentration at which IKZF3 protein was significantly degraded (Western blot, FIG. 1) [1] | substrate protein remaining % IKZF1 [2] | concentration at which IKZF1 protein was significantly degraded (Western blot, FIG. 1) [2] | substrate protein remaining % GSPT1 [8] | concentration at which GSPT1 protein was clearly/significantly degraded (Western blot, FIG. 1) [8]
6 | O=C1CCC(N2Cc3c(ccc(CN4CCC(N(c5ccccc5)c5ccccn5)CC4)c3F)C2=O)C(=O)N1 (stereo not shown) [GT-05856, 3-(4-fluoro-1-oxo-5-((4-(phenyl(pyridin-2-yl)amino)piperidin-1-yl)methyl)isoindolin-2-yl)piperidine-2,6-dione] | < 1 | 1 to 10 | 1 to 10 | 1 to 10 | < 0.5 | A (A represents 0% ≤ substrate protein remaining % ≤ 50%) | below 50 nM | A (A represents 0% ≤ substrate protein remaining % ≤ 50%) | below 50 nM | A (A represents 0% ≤ substrate protein remaining % ≤ 50%) | below 50 nM
7 | O=C1CCC(N2Cc3cc(CN4CCC(N(c5ccccc5)c5ccccn5)CC4)c(F)cc3C2=O)C(=O)N1 (stereo not shown) [GT-05857, 3-(6-fluoro-1-oxo-5-((4-(phenyl(pyridin-2-yl)amino)piperidin-1-yl)methyl)isoindolin-2-yl)piperidine-2,6-dione] | < 1 | 1 to 10 | 1 to 10 | 1 to 10 | < 0.5 | A (A represents 0% ≤ substrate protein remaining % ≤ 50%) | below 50 nM | A (A represents 0% ≤ substrate protein remaining % ≤ 50%) | below 50 nM | A (A represents 0% ≤ substrate protein remaining % ≤ 50%) | below 50 nM
8 | O=C1CCC(N2Cc3cc(N4C5CCC4CN(C(c4ccccc4)c4ccccc4)C5)ccc3C2=O)C(=O)N1 (stereo not shown) [GT-05866, 3-(5-(3-benzhydryl-3,8-diazabicyclo[3.2.1]octan-8-yl)-1-oxoisoindolin-2-yl)piperidine-2,6-dione] | 1 to 10 | 50 to 100 | 10 to 50 | 10 to 50 | 0.5 to 1 | A (A represents 0% ≤ substrate protein remaining % ≤ 50%) | – | B (B represents substrate protein remaining % > 50%) | – | A (A represents 0% ≤ substrate protein remaining % ≤ 50%) | –
9 | O=C1CCC(N2Cc3cc(CN4CCN(C(c5ccccc5F)c5ccccc5F)CC4)ccc3C2=O)C(=O)N1 (stereo not shown) [GT-06084, 3-(5-((4-(bis(2-fluorophenyl)methyl)piperazin-1-yl)methyl)-1-oxoisoindolin-2-yl)piperidine-2,6-dione] | 1 to 10 | 10 to 50 | 10 to 50 | 10 to 50 | < 0.5 | A (A represents 0% ≤ substrate protein remaining % ≤ 50%) | – | A (A represents 0% ≤ substrate protein remaining % ≤ 50%) | – | A (A represents 0% ≤ substrate protein remaining % ≤ 50%) | –
10 | O=C1CCC(N2Cc3cc(CN4CCN(C(c5ccccc5F)c5ccccc5F)CC4)c(F)cc3C2=O)C(=O)N1 (stereo not shown) [GT-06086, 3-(5-((4-(bis(2-fluorophenyl)methyl)piperazin-1-yl)methyl)-6-fluoro-1-oxoisoindolin-2-yl)piperidine-2,6-dione] | 1 to 10 | 10 to 50 | 10 to 50 | 10 to 50 | 0.5 to 1 | A (A represents 0% ≤ substrate protein remaining % ≤ 50%) | – | A (A represents 0% ≤ substrate protein remaining % ≤ 50%) | – | A (A represents 0% ≤ substrate protein remaining % ≤ 50%) | –
11 | O=C1CCC(N2Cc3cc(CN4CCN(C(c5cc(F)cc(F)c5)c5cc(F)cc(F)c5)CC4)ccc3C2=O)C(=O)N1 (stereo not shown) [GT-06387, 3-(5-((4-(bis(3,5-difluorophenyl)methyl)piperazin-1-yl)methyl)-1-oxoisoindolin-2-yl)piperidine-2,6-dione] | < 1 | 1 to 10 | 1 to 10 | 1 to 10 | 1 to 1.9 | A (A represents 0% ≤ substrate protein remaining % ≤ 50%) | – | B (B represents substrate protein remaining % > 50%) | – | A (A represents 0% ≤ substrate protein remaining % ≤ 50%) | –

— patent US20250320193A1, “OXOISOINDOLINYL SUBSTITUTED PIPERIDINEDIONE DERIVATIVE AND USE THEREOF” (GLUETACS THERAPEUTICS (SHANGHAI) CO., LTD., priority 2022, published 2025)
